Assay results as given in patent publication US20230125075A1, “Composition Containing Paper Mulberry Extracts” (LG Household & Health Care Ltd., priority 2020, published 2023).
Where “and” joins values, the source holds several entries; their conditions need not be identical. Equal entries are not always repeated.

Legend:
Format in all cases: cell-based
[1] = test system: HepG2 cells; assay: Cholesterol synthesis in HepG2 cells ([14C] acetate incorporation); conditions: for IC50: positive controls, HepG2 cells
Experimental: To confirm the lipid-cholesterol improvement effect of the plant extracts, an appropriate number of HepG2 cells was seeded and cultured using a IMEM culture medium (containing 10% of FCS, 4.5 g/L of glucose, 4 mM glutamine, 10 μg/ml of insulin, 50 μg/ml of penicillin, 50 μg/ml of streptomycin, and 1% of non-essential amino acids). At this time, the culture medium was replaced every 2 days, and the cells were used for the experiment on the 12th day after seeding.
1 ml of a labeled acetate solution ([^14C] sodium acetate) was added to the cells, and the cells were incubated in a CO2 incubator. After 1 hour of incubation, the culture medium was discarded, the cells were washed with ice-cold PBS, 2 M NaOH was added to detach the cells, and the cells were incubated at 95° C. for 1 hour to induce saponification of lipids. Then, [^3H] cholesterol (about 20,000 dpm/sample) was added as a recovery marker, and lipids were extracted with a chloroform-methanol (2:1 (v/v)) solution. Then, after separating lipides through thin layer chromatohrapy (TLC), a band corresponding to free cholesterol was scraped and placed in a scintillation vial for measurement. The results for the above experiment were expressed as the amount of acetate incorporated per protein (acetate (nmole) incorporated/protein (mg)).
In this experimental example, it was confirmed whether the plant extracts inhibit cholesterol synthesis. As a result of the experiment, the amount of cholesterol was quantified. A decrease in cholesterol level means that a cholesterol improvement effect is obtained.
The effect of the test substance on the intracellular cholesterol content was expressed as a relative ratio when the control group (treated with dimethyl sulfoxide (DMSO) only) was 100% or was expressed as the amount incorporated acetate ([^14C]-acetate (nmole) incorporated/4 h/well). As the measured value increases, the amount of synthesized cholesterol increases. That is, a decrease in cholesterol synthesis indicates improvement in cholesterol.

[2] = test system: U266 cells; assay: IgE secretion measurement, ELISA
Experimental: To confirm the anti-allergic effect of the plant extracts, the secretion amount of immunoglobulin E was measured. First, U266 cells were treated with a test substance while culturing the U266 cells in an RPMI1640 culture medium containing 10% FBS for 3 days. After 3 days of treatment with the test substance, the cell culture medium was harvested. IgE capture antibody was added to the plate and left for 1 day. The plate was blocked with 2% BSA. The collected culture medium was added to the plate and mixed by shaking. IgE detection antibody was added to the plate and mixed by shaking. Streptavidin-HRP was added to the plate, and after blocking light, the mixture was shaken. A substrate was added to the plate, and after blocking light, the mixture was mixed by shaking until the color of the mixture changed to blue. After confirming that the color had changed, a 2 N sulfuric acid solution was added to the plate and mixed by shaking until the color changed to yellow. After measuring the absorbance at 450 nm and 570 nm, results were analyzed by subtracting the absorbance at 570 nm from the absorbance at 450 nm. At this time, as a positive control, 1 μM dexamethasone was used, and as a result, an inhibitory effect of 32% was observed. As a result of treatment with 0.1 μM hydrocortisone, an inhibitory effect of 35% was observed.
As a result of the experiment, the amount of IgE was quantified. As the level of IgE decreases, the anti-allergic effect increases.

[3] = test system: 3T3-L1 fibroblasts; assay: Glycerol content in culture medium of 3T3-L1 fibroblasts (lipolysis); conditions: positive control
Experimental: To confirm the anti-obesity effect of the plant extracts, the content of glycerol in the culture medium of 3T3-L1 fibroblasts was measured.
First, 3T3-L1 fibroblasts were cultured using a DMEM culture medium (proliferation culture medium) containing 10% bovine serum to an appropriate cell number on a plate. Then, using a DMEM culture medium (differentiation culture medium) containing 10% FBS, the cells were cultured until the plate was filled with the cells, and then were further cultured for 2 to 3 days. The existing culture medium was replaced with a culture medium to induce cell differentiation, which contains insulin (5 μg/mL), dexamethasone (0.25 μM), and 3-isobutyl-1-methylxanthine (0.5 mM), and was followed by incubation for 2 to 3 days. Afterwards, the culture medium was replaced with a medium containing only insulin and the cells were incubated for 2 to 3 days, and then the culture medium was replaced again with a DMEM culture medium containing 10% FBS and the cells were again incubated for 6 to 8 days (incubated until a point at which fat accumulation is observed in the cells). The anti-obesity substance was added before or after differentiation induction according to the purpose of the experiment. The cell culture medium was centrifuged at 10,000 rpm for 10 minutes, and the supernatant was obtained using a Pasteur pipette. The obtained supernatant was transferred to a plate and heated at 65° C. for 8 min to inactivate enzymes released from the cells. Next, a glycerol probe was dissolved in 220 μl of DMSO, and a glycerol enzyme mixture (Cayman Chemical, USA; Item No. 10010962) was dissolved in an assay buffer. These solutions were shielded from light and stored at −20° C. until experiment was performed. A 1 mM glycerol standard solution was prepared by diluting 10 μl of a glycerol standard solution with 990 μl of an analysis buffer. Then, the 1 mM glycerol standard solution was thoroughly mixed, 0, 2, 4, 6, 8, and 10 μl of the 1 Mm glycerol standard solution were respectively added to each well, and the analysis buffer was added to the each well to adjust the total volume to 50 μl. 50 μl of the sample (culture medium in which enzymes are inactivated) was added to each well. A reaction mixture containing 46 μl of the analysis buffer, 2 μl of the glycerol probe, and 2 μl of the glycerol enzyme mixture was prepared. 50 μl of the reaction mixture was added to each well containing the standard solution and the sample and was thoroughly mixed. Then, each well was shielded from light and left at room temperature for 30 minutes. Then, absorbance was measured at 570 nm.
As a result of the experiment, the amount of glycerol was quantified. Glycerol is a by-product of lipolysis. Accordingly, as the level of glycerol increases, an anti-obesity effect increases.
When lipolysis is enhanced by the test substance, the amount of triglycerides accumulated in adipocytes decreases and the amount of glycerol released increases. Accordingly, an increase in the amount of released glycerol means an increase in decomposition of triglycerides. Through this experiment, it can be confirmed that the test substance has an anti-obesity effect.

[4] = test system: C2C12 cells; assay: Glucose uptake measurement (2-NBDG method, FACS); conditions: positive control
Experimental: To confirm the blood glucose control effect of the plant extracts, the glucose uptake capacity of cells treated with the plant extracts was measured. First, C2C12 cells were seeded on a 96-well culture plate at a cell density of 1×10^4 cells/well. When a state of subconfluence was reached, which is within 24 hours, the experiment was started.
When saturated, the culture medium was removed, and 100 μl of a fresh medium containing 10 μM 2-NBDG or 100 μl of a fresh medium not containing 10 μM 2-NBDG (control) was added to each well. At this time, a test substance to be evaluated was included in the culture medium. That is, the cells were treated with the test substance by changing the culture medium. After treatment for 1 hour, wells were washed 2 times with pre-cold PBS. Then, cells in each well were collected and resuspended in 200 μl of a pre-cold medium, and the nuclei of the cells were stained with 1 μg/mL of propidium iodine (PI).
Measurement was performed with FACS for about 20 seconds. Event results of about 2,000 single cells were collected, and statistical analysis was performed on the event results.
In this experiment, it was determined whether the plant extracts promote intracellular glucose uptake. As a result of the experiment, the amount of glucose uptake into cells was quantified. That is, an increase in glucose uptake into cells means that the blood glucose control effect is improved.
As the value of measured fluorescence intensity increases, the glucose absorption rate increases. An increase in glucose absorption indicates a decrease in blood glucose levels.

[5] = test system: HUVEC cells; assay: Recovery of reduction in nitric oxide induced by oxLDL (Griess reagent); conditions: positive control
Experimental: To confirm the blood circulation improvement effect of the plant extracts, recovery of reduction in nitric oxide induced by oxidized low density lipoprotein (oxLDL) was measured. First, HUVEC cells were suspended in a Ham's F-12K (Kaighn's modification) culture medium, and the suspended cells were aliquoted into a culture plate. Then, plant extracts (samples) diluted at various concentrations were added to the culture plate containing the cells. At this time, […]. The sample-treated cells were placed in a 5% CO2 incubator set at 37° C. and cultured for 24 to 48 hours, and then the supernatant was taken and used as an analysis sample.
To analyze nitric oxide, a Griess reagent was prepared by mixing equal amounts of component A and component B. Then, 250 μl of the sample (culture medium) and 50 μl of the Griess reagent were added to a plate and mixed thoroughly. Next, to prepare a sodium nitrite solution, a nitrite standard solution was diluted with distilled water to a concentration between […] (reference sample). Under light-blocked conditions, a mixture of the sample and the Griess reagent was incubated at room temperature for 30 minutes. Thereafter, the absorbance (OD) of the nitrite-containing sample with respect to the reference sample was measured at 548 nm.
In this experiment, it was confirmed whether the level of nitric oxide decreased by oxLDL was recovered by the plant extracts. At this time, as a result of the experiment, the amount of nitric oxide was quantified. Nitric oxide plays a role in dilating blood vessels.

With CC(C)c1c(C(=O)Nc2ccccc2)c(-c2ccccc2)c(-c2ccc(F)cc2)n1CC[C@@H](O)C[C@@H](O)CC(=O)O [Atorvastatin] the activity at 0.0704 µM ([1]; Homo sapiens, HepG2, positive control, 70.4 nM, read-out: Lipid-cholesterol synthesis (% of control)) was 50%, the IC50 ([1]; Homo sapiens) was 70.4 nM and the Lipid-cholesterol synthesis ([1]; positive control, 70.4 nM) was 50.00 % of control. For the same compound, the “Lipid-cholesterol synthesis (% of control)” value ([1]; positive control, 70.4 nM) was 50.00 (Atorvastatin % of control, the “Lipid-cholesterol synthesis (% of control)” value ([1]; positive control, 70.4 nM, 0.0704 µM) was 50.00 (Atorvastatin % of control and the Lipid-cholesterol synthesis ([1]; positive control, Atorvastatin 70.4 nM) was 50.00 % of control.

C[C@@H]1C[C@H]2[C@@H]3CCC4=CC(=O)C=C[C@]4(C)[C@@]3(F)[C@@H](O)C[C@]2(C)[C@@]1(O)C(=O)CO [Dexamethasone] was tested, and the activity at 1 µM ([2]; Homo sapiens, U-266, positive control, 1 uM, read-out: Anti-allergy-IgE secretion (% of control)) was 67.3%, the inhibition at 1 µM ([2]; Homo sapiens, U-266, positive control, 1 μM, read-out: inhibitory effect on IgE secretion) was 32% and the Anti-allergy-IgE secretion ([2]; positive control, 1 uM) was 67.27 % of control. The “Anti-allergy-IgE secretion (% of control)” value ([2]; positive control, 1 uM) was 67.27 (Dexamethasone % of control and the Anti-allergy-IgE secretion ([2]; positive control, Dexamethasone 1 uM) was 67.27 % of control.

For CC(C)NCC(O)c1ccc(O)c(O)c1 (centres unmarked) [Isoproterenol], the activity at 10 µM ([3]; Mus musculus, 3T3-L1, 10 μM, read-out: Anti-obesity-Glycerol Conc. (% of control)) was 872%, the “Anti-obesity-Glycerol Conc.” value ([3]; 10 pM) was 872.36 % of control and the “Anti-obesity-Glycerol Conc.” value ([3]; 10 μM) was 872.36 % of control. For the same compound, the “Anti-obesity-Glycerol Conc. (% of control)” value ([3]; 10 μM) was 872.36 (Isoproterenol % of control and the “Anti-obesity-Glycerol Conc.” value ([3]; Isoproterenol 10 μM) was 872.36 % of control.

For CN(C)C(=N)N=C(N)N [Metformin], the activity at 1000 µM ([4]; Mus musculus, C2C12, 1 mM, read-out: Blood glucose-Glucose absorption (% of control)) was 184%, the “Blood glucose-Glucose absorption” value ([4]; 1 mM) was 183.77 % of control and the “Blood glucose-Glucose absorption (% of control)” value ([4]; 1 mM) was 183.77 (Metformin % of control. The “increase effect on glucose uptake” value ([4]; 1 mM) was 180% and the “Blood glucose-Glucose absorption” value ([4]; Metformin 1 mM) was 183.77 % of control.

For CC(C)c1nc(N(C)S(C)(=O)=O)nc(-c2ccc(F)cc2)c1/C=C/[C@@H](O)C[C@@H](O)CC(=O)O [Rosuvastatin], the “recovery of nitric oxide reduced by oxLDL” value ([5]; 0.1 μM) was 100%, the “Blood circulation-NO Conc.” value ([5]; 0.05 ppm) was 98.29 % of control and the “Blood circulation-NO Conc. (% of control)” value ([5]; 0.05 ppm) was 98.29 % of control and 98.29 (Rosuvastatin % of control. The “Blood circulation-NO Conc.” value ([5]; Rosuvastatin 0.05 ppm) was 98.29 % of control and the “Blood circulation-NO Conc. (% of control)” value ([5]; Rosuvastatin 0.05 ppm) was 98.29 % of control.

In the case of C[C@]12CCC(=O)C=C1CC[C@@H]1[C@@H]2[C@@H](O)C[C@@]2(C)[C@H]1CC[C@]2(O)C(=O)CO [hydrocortisone], the inhibition at 0.1 µM ([2]; Homo sapiens, U-266, 0.1 μM, read-out: inhibitory effect on IgE secretion) is reported as 35%.

CCCCCCCCCCC[C@@H](C[C@@H]1OC(=O)[C@H]1CCCCCC)OC(=O)[C@H](CC(C)C)NC=O [orlistat] was tested, and the “increase of glycerol compared to the negative control group” value ([3]; 0.5 ppm) was 160%.

For CCC(C)(C)C(=O)O[C@H]1C[C@@H](C)C=C2C=C[C@H](C)[C@H](CC[C@@H]3C[C@@H](O)CC(=O)O3)[C@H]21 [simvastatin], the IC50 ([1]; Homo sapiens) was 31.8 nM.
